SMILES strings stand for the structures. Counter-ions that a name gives are not always drawn.

Our source for the IC50 values is patent US11319303B2 (WIGEN BIOMEDICINE TECHNOLOGY (SHANGHAI) CO., LTD., priority 2017, dated 2022).

One experiment has as its target LC3B (Homo sapiens, UniProt Q9GZQ8). The experiment in a line: Fluorescence Polarization (FP) Assay: displacement of FITC-labeled peptide from GST-LC3B. In kind it is binding.
Conditions: not given
The protocol: The compounds of the present invention for regulating the autophagy-related protein LC3B were tested by Fluorescence Polarization (FP) Assay.
Fluorescence Polarization (FP) Assay Test
With `CN(C)CCNC=C1C(=O)CC(c2cccc(Cl)c2F)CC1=O` (centres unmarked) [Compound 384, 5-(3-chloro-2-fluorophenyl)-2-(((2-(dimethylamino)ethyl)amino)methylene) cyclohexane-1,3-dione], the half-maximal inhibitory concentration (IC50) was below 3 µM.

The experiment is the same for the next values; noted with them: Fluorescence Polarization assay; GST-LC3B 180 nM, FITC-labeled peptide 18 nM, 25° C.; read-out: IC50.
Take `O=C1CC(c2c3ccccc3cc3ccccc23)CC(=O)C1=CNCCN1CCN(CCO)CC1` (centres unmarked) [Compound 61, 5-(anthracen-9-yl)-2-(((2-(4-(2-hydroxyethyl)piperazin-1-yl)ethyl)amino)methylene) cyclohexane-1,3-dione]: the IC50 is below 3 µM.
On the same count and under the same terms, as for `O=C1CC(c2cccc(F)c2F)CC(=O)C1=CNCCN1CCN(CCO)CC1` (centres unmarked) [Compound 387, 5-(2,3-difluorophenyl)-2-(((2-(4-(2-ethoxyl)piperazin-1-yl)ethyl)amino)methylene) cyclohexane-1,3-dione], the figure is below 3 µM; as for `CCN1CCN(CCNC=C2C(=O)CC(c3ccc(C)cc3)CC2=O)CC1` (centres unmarked) [Compound 238, 2-(((2-(4-ethylpiperazin-1-yl)ethyl)amino)methylene)-5-(p-tolyl) cyclohexane-1,3-dione], below 3 µM.
Still for that read-out and setting: as for `O=C1CC(c2cccc(Oc3ccncc3)c2)CC(=O)C1=CNCCN1CCN(CCO)CC1` (centres unmarked) [Compound 75, 2-(((2-(4-(2-hydroxyethyl)piperazin-1-yl)ethyl)amino)methylene)-5-(3-(pyridin-4-yloxy)phenyl) cyclohexane-1,3-dione], the figure is 3 to 15 µM; as for `COc1ccc(C2CC(=O)C(=CNCCN3CCN(CCO)CC3)C(=O)C2)c(OC)c1` (centres unmarked) [Compound 46, 5-(2,4-dimethoxyphenyl)-2-(((2-(4-(2-hydroxyethyl)piperazin-1-yl)ethyl)amino)methylene) cyclohexane-1,3-dione], below 3 µM; as for `CN(C)CCNC=C1C(=O)CC(c2ccc(Br)s2)CC1=O` (centres unmarked) [Compound 366, 5-(5-bromothiophen-2-yl)-2-(((2-(dimethylamino)ethyl)amino)methylene) cyclohexane-1,3-dione], below 3 µM.
The same measure, in the same setting: then `COCCNC=C1C(=O)CC(c2ccccc2)CC1=O` (centres unmarked) [Compound 128, 2-(((2-methoxyethyl)amino)methylene)-5-phenylcyclohexane-1,3-dione], with 100 to 1000 µM; and `Cc1cccc2[nH]cc(C3CC(=O)C(=CNCCN4CCN(CCO)CC4)C(=O)C3)c12` (centres unmarked) [Compound 184, 2-(((2-(4-(2-hydroxyethyl)piperazin-1-yl)ethyl)amino)methylene)-5-(4-methyl-1H-indol-3-yl)cyclohexane-1,3-dione], with 100 to 1000 µM.
As for `O=C1CC(COc2ccccc2)CC(=O)C1=CNCCN1CCN(CCO)CC1` (centres unmarked) [Compound 31, 2-(((2-(4-(2-hydroxyethyl)piperazin-1-yl)ethyl)amino)methylene)-5-(phenoxymethyl) cyclohexane-1,3-dione], the IC50 was 3 to 15 µM.
Same read-out and setting: then `O=C1NC(=O)/C(=C\NCCN2CCN(CCO)CC2)S1` [Compound 200, 5-(((2-(4-(2-hydroxyethyl)piperazin-1-yl)ethyl)amino)methylene)thiazolidine-2,4-dione], with 100 to 1000 µM; and `CN(C)CCNC=C1C(=O)CC(c2ccccc2I)CC1=O` (centres unmarked) [Compound 300, 2-(((2-(dimethylamino)ethyl)amino)methylene)-5-(2-iodophenyl) cyclohexane-1,3-dione], with below 3 µM.
Still for that read-out and setting: as for `CS(=O)(=O)c1ccc(C2CC(=O)C(=CNCCN3CCN(CCO)CC3)C(=O)C2)cc1` (centres unmarked) [Compound 65, 2-(((2-(4-(2-hydroxyethyl)piperazin-1-yl)ethyl)amino)methylene)-5-(4-(methylsulfonyl)phenyl) cyclohexane-1,3-dione], the figure is 100 to 1000 µM.
Still for that read-out and setting: then `O=C1CC(c2ccccc2C2CC2)CC(=O)C1=CNCCN1CCN(CCO)CC1` (centres unmarked) [Compound 189, 5-(2-cyclopropylphenyl)-2-(((2-(4-(2-hydroxyethyl)piperazin-1-yl)ethyl)amino)methylene) cyclohexane-1,3-dione], with below 3 µM.
For `COc1ccc(C2CC(=O)C(=CNCCN3CCN(CCO)CC3)C(=O)C2)c2ccccc12` (centres unmarked) [Compound 54, 2-(((2-(4-(2-hydroxyethyl)piperazin-1-yl)ethyl)amino)methylene)-5-(4-methoxy-naphthalen-1-yl)cyclohexane-1,3-dione], the concentration for half-maximal inhibition (IC50) is below 3 µM.
Same read-out and setting: then `O=C1CC(c2ccco2)CC(=O)C1=CNCCN1CCN(CCO)CC1` (centres unmarked) [Compound 43, 5-(furan-2-yl)-2-(((2-(4-(2-hydroxyethyl)piperazin-1-yl)ethyl)amino)methylene) cyclohexane-1,3-dione], with 3 to 15 µM.
On the same count and under the same terms, then `CC(C)(C)OC(=O)C1C(=O)C(=CNCCN2CCN(CCO)CC2)C(=O)CC1c1ccccc1` (centres unmarked) [Compound 334, tert-butyl 3-(((2-(4-(2-hydroxyethyl)piperazin-1-yl)ethyl)amino)methylene)-2,4-dioxo-6-phenylcyclohexane-1-carboxylate], with 3 to 15 µM; and `CN(C)CCNC=C1C(=O)CC(c2cc(F)ccc2F)CC1=O` (centres unmarked) [Compound 302, 5-(2,5-difluorophenyl)-2-(((2-(dimethylamino)ethyl)amino)methylene) cyclohexane-1,3-dione], with below 3 µM; and `NC(=O)C1C(=O)C(=CNCCN2CCN(CCO)CC2)C(=O)CC1c1ccccc1` (centres unmarked) [Compound 333, 3-(((2-(4-(2-hydroxyethyl)piperazin-1-yl)ethyl)amino)methylene)-2,4-dioxo-6-phenylcyclohexane-1-carboxamide], with 15 to 100 µM.
Take `NC1CC(NC=C2C(=O)CC(c3ccccc3)CC2=O)C1` (centres unmarked) [Compound 173, 2-(((3-aminocyclobutyl)amino)methylene)-5-phenylcyclohexane-1,3-dione hydrochloride]: the concentration for half-maximal inhibition (IC50) was in the range of 15 to 100 µM.
Same read-out and setting: then `CN(C)CCNC=C1C(=O)CC(c2ccccc2O)CC1=O` (centres unmarked) [Compound 308, 2-(((2-(dimethylamino)ethyl)amino)methylene)-5-(2-hydroxyphenyl) cyclohexane-1,3-dione], with 3 to 15 µM; and `CN(C)CCNC=C1C(=O)CC(c2c[nH]cc2Br)CC1=O` (centres unmarked) [Compound 413, 5-(4-bromo-1H-pyrrole-3-yl)-2-(((2-(dimethylamino)ethyl)amino)methylene) cyclohexane-1,3-dione], with 3 to 15 µM; and `O=C1CC(c2c[nH]cn2)CC(=O)C1=CNCCN1CCN(CCO)CC1` (centres unmarked) [Compound 59, 2-(((2-(4-(2-hydroxyethyl)piperazin-1-yl)ethyl)amino)methylene)-5-(1H-imidazol-4-yl) cyclohexane-1,3-dione], with 100 to 1000 µM.
Take `CN(C)C(=O)N1CCN(CCNC=C2C(=O)CC(c3ccc(Cl)cc3)CC2=O)CC1` (centres unmarked) [Compound 248, 4-(2-(((4-(4-chlorophenyl)-2,6-dioxocyclo-hexylidene)methyl)amino)ethyl)-N,N-dimethylpiperazine-1-carboxamide]: the concentration for half-maximal inhibition (IC50) was below 3 µM.
Still for that read-out and setting: then `CN(C)CCNC=C1C(=O)CC(c2ccccc2N)CC1=O` (centres unmarked) [Compound 386, 5-(2-aminophenyl)-2-(((2-(dimethylamino)ethyl)amino)methylene) cyclohexane-1,3-dione], with below 3 µM.
Still for that read-out and setting: as for `CN(C)CCNC=C1C(=O)CC(c2c(C(F)(F)F)ccc(Cl)c2F)CC1=O` (centres unmarked) [Compound 378, 5-(3-chloro-2-fluoro-6-(trifluoromethyl)phenyl)-2-(((2-(dimethylamino)ethyl)amino)methylene) cyclohexane-1,3-dione], the figure is below 3 µM.
